Test results from paper PMC12564639, “Discovery of a Novel Anticoagulant Cystine Knot Peptide from Spider Venom Gland Transcriptome” (International Journal of Molecular Sciences, 2025).
Peptide text beside a SMILES is read from it.

What was measured:
[1] = target: T1, Human Activated Protein C (APC-1.0) (Homo sapiens, UniProt P04070); assay: Bio-layer interferometry (BLI) binding; conditions: Octet R2, SA biosensors, biotinylated APC 10 µg/mL, GC38 3.125-50 μM, PBS with 0.02% Tween-20, association 300 s, dissociation 180 s, average of three, read-out: dissociation constant (KD)
T1 construct: purchased Enzyme Research Laboratories, Inc., South Bend, IN, USA APC-1.0
Excerpt: Human Activated Protein C (APC-1.0) was purchased from Enzyme Research Laboratories, Inc., South Bend, IN, USA. […] Activated Partial Thromboplastin Time (APTT) Test Kit (TC0306) was bought from Senkey Biotechnology Co., Ltd., Kunming, China. Prothrombin Time (PT) Test Kit (GMS10176) was purchased from GENMED Scientifics Inc., Shanghai, China. Streptavidin (SA) Biosensors (18-5019) were obtained from Sartorius AG, Göttingen, Lower Saxony, Germany. PBS (21-040-CVC) was bought from Corning Incorporated, Corning, NY, USA. Tween-20 (BS361B) was purchased from Biosharp Life Sciences, Hefei, Anhui, China. Trifluoroacetic acid (TFA, T818778-500ml, CAS: 76-05-1) and CaCl2 (C805225) were obtained from Macklin Biochemical Co., Ltd., Shanghai, China. L-oxidized glutathione (GSSG, V900363), Rose Bengal Dye (content 95%, CAS: 632-69-9, 330000-5G), and HEPES (V900477-500G) were purchased from Sigma-Aldrich LLC, St. Louis, MO, USA (Shanghai branch: Sigma-Aldrich Shanghai Trading Co., Ltd., Shanghai, China). […]
The binding affinity between APC and GC38 was measured using the Octet® R2 system (ForteBio, Fremont, CA, USA) with Streptavidin (SA) biosensors. […] Data were acquired and analyzed using Octet® Data Acquisition and Analysis software version 8.2. […]

[2] = system: stasis-induced deep vein thrombosis in mice; assay: Stasis-induced deep vein thrombosis (DVT) model; assay type: in vivo, C57BL/6J mice
Description: The C57BL/6J mice (male, 6–8 weeks old) were purchased from Beijing Vital River Laboratory Animal Technology Co., Ltd. (Beijing, China). All animal studies were performed under the approval of the Ethics Committee of the Laboratory Animal Welfare of the Kunming Institute of Zoology, Chinese Academy of Sciences (IACUC-RE-2025-03-010).
Male C57BL/6J mice (6–8 weeks old, n = 10 per group) were randomized to receive intravenous injections of PBS (vehicle control), GC38 (2 or 4 mg/kg), or heparin sodium (1000 U/kg) for the establishment of stasis-induced DVT models. […] Briefly, mice were anesthetized, and the IVC was exposed through a midline abdominal incision. […] Finally, the abdominal wall was closed carefully. At 24 h post-ligation, the IVC was resected, and thrombus formation was quantified by measuring the weight of the thrombi (n = 5). HE staining analysis of thrombus sections was performed to evaluate the extent of thrombosis (n = 5).

[3] = system: human keratinocytes (HaCaT); assay: Cytotoxicity (CCK-8), HaCaT; assay type: cell-based; conditions: 24 h, n = 3
Description: The cytotoxicity of GC38 was evaluated in human embryonic kidney cells (HEK293T), human keratinocytes (HaCaT), and murine macrophage (RAW264.7) cell lines. The cells were from Kunming Cell Bank, Chinese Academy of Sciences. HEK293T and HaCaT cells were cultured in DMEM supplemented with 10% fetal bovine serum (FBS) and 1% penicillin-streptomycin, and RAW264.7 cells were maintained in RPMI 1640 containing 10% FBS and 1% penicillin–streptomycin, with all cell lines incubated at 37 °C under 5% CO2. For cytotoxicity assessment, cells were seeded at a density of 1 × 10^5 cells per well in 96-well plates and incubated for 12 h. […] After 24 h incubation, cell viability was determined using the CCK-8 assay (10 μL/well). Absorbance was measured at 450 nm using a multi-mode microplate reader (BioTek Synergy™ H1, Winooski, VT, USA). Untreated cells and cells treated with 10% DMSO served as negative and positive controls, respectively. Viability percentages were calculated relative to the untreated control. All experiments were conducted in triplicate, and data were expressed as mean ± SEM.

## CSCC[C@@H]1NC(=O)[C@H](CC(N)=O)NC(=O)CNC(=O)CNC(=O)[C@H](Cc2c[nH]cn2)NC(=O)[C@H](CCCNC(=N)N)NC(=O)CNC(=O)[C@@H]2CSSC[C@@H]3NC(=O)[C@H](CCCNC(=N)N)NC(=O)[C@H](C)NC(=O)CNC(=O)[C@H](CCCCN)NC(=O)CNC(=O)[C@H](CO)NC(=O)[C@@H](NC(=O)CN)CSSC[C@H](NC(=O)[C@H](CSSC[C@@H](C(=O)N[C@@H](CCC(=O)O)C(=O)N[C@@H](Cc4c[nH]c5ccccc45)C(=O)N[C@@H](CC(N)=O)C(=O)N[C@@H](Cc4c[nH]c5ccccc45)C(=O)N[C@@H](CCCCN)C(=O)N[C@H](C(=O)NCC(=O)O)[C@@H](C)O)NC(=O)[C@H](CO)NC(=O)[C@H](CCCCN)NC(=O)[C@H](Cc4ccc(O)cc4)NC1=O)NC(=O)[C@H](CCCCN)NC(=O)[C@H](CO)NC(=O)[C@@H]1CCCN1C(=O)[C@H](C)NC3=O)C(=O)N[C@@H](CO)C(=O)NCC(=O)N[C@@H](CC(C)C)C(=O)N[C@@H](CO)C(=O)N2 [GC38] (HELM PEPTIDE1{G.C.S.G.K.G.A.R.C.A.P.S.K.C.C.S.G.L.S.C.G.R.H.G.G.N.M.Y.K.S.C.E.W.N.W.K.T.G}$PEPTIDE1,PEPTIDE1,2:R3-15:R3|PEPTIDE1,PEPTIDE1,9:R3-20:R3|PEPTIDE1,PEPTIDE1,14:R3-31:R3$$$V2.0)
[1]
  Kd: 6.16 µM
[2]; GC38 4 mg/kg i.v., 24 h after IVC ligation, n = 5 per group
  reduction of thrombus wet weight versus vehicle control: 64.0%
[2]; HE staining, IVC sections, 24 h after ligation, n = 5
  thrombus area (histology): decrease in thrombus area
[3]; 50 μM, serum-free medium, CCK-8, 450 nm, relative to untreated control
  cell viability HaCaT: greater than 95%
[3]; 0.1–50 μM, CCK-8
  cytotoxicity HaCaT: negligible cytotoxicity
